Source: EP4745138A1, “THIO-GLUTARIMIDO ISOINDOLINONE DERIVATIVE, BIFUNCTIONAL PROTEIN DEGRADER CONTAINING SAME, AND USES THEREOF” (Gluetacs Therapeutics (Shanghai) Co., Ltd., priority 2023, dated 2025)
Like-named read-outs stand apart in the source and are kept apart here.

Columns and labels:
[1] = system: JEKO-1; assay: Tumor cell proliferation inhibition (CellTiter-Meiluncell Luminescent Cell Viability Assay); type: cell-based; conditions: Homo sapiens, 96 hours; for inhibition at 0.01 µM: 10 nM, read-out: Inhibition Rate at 10 nM (%); for inhibition at 0.5 µM: 500 nM, read-out: Inhibition Rate at 500 nM (%)
Summary of the method: (§1)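 Following overnight seeding, tumor cells received serial compound dilutions to final levels that included 10 nM and 500 nM. Viability was assessed by luminescence at the end of the specified exposure time. Cultures were kept at 37°C with 5% CO2.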

[2] = system: MM.1S; assay: as above; type: cell-based; conditions: Homo sapiens, MM1.S, MM.1S, 96 hours; for inhibition at 0.01 µM: 10 nM, read-out: Inhibition Rate at 10 nM (%); for inhibition at 0.5 µM: 500 nM, read-out: Inhibition Rate at 500 nM (%)
Summary of the method: as §1

[3] = system: MV-4-11; assay: as above; type: cell-based; conditions: Homo sapiens, 96 hours; for inhibition at 0.01 µM: MV4-11, 10 nM, read-out: Inhibition Rate at 10 nM (%); for inhibition at 0.5 µM: MV4-11, 500 nM, read-out: Inhibition Rate at 500 nM (%)
Summary of the method: as §1

[4] = target: T1, CDK2 (Homo sapiens, UniProt P24941); assay: Western blot, target protein degradation in hPBMC Cell; type: cell-based; conditions: treated at 50 nM and 500 nM, 24 hours
T1 construct: the expression of target proteins in cells; endogenous in cells; host or cells: hPBMC
Protocol: (§2) Conventional Western blot assay was performed to evaluate the effects of the compounds of the present disclosure on the expression of target proteins in cells.
(§3) (1) Cell Seeding and Protein Harvesting: The selected cells were processed according to the cell seeding procedure and protein harvesting procedure in Table II-2. Table II-2 Cell Seeding and Protein Harvesting Procedures
(§4) (2) To the collected supernatant, 5X SDS sample loading buffer was added, followed by denaturation at 95°C for 5 minutes. The denatured samples were then separated by SDS-PAGE electrophoresis on a polyacrylamide gel. Proteins were transferred to a nitrocellulose membrane (0.45 µm NC membrane), blocked with blocking buffer at room temperature for 1 hour, and subjected to antibody incubation and development procedures according to the antibody manufacturer's instructions (Cell Signaling Technology).
(§5) Half-Maximal Degradation Concentration value (the drug concentration required for degrading proteins by 50%, abbreviated as DC50) reads method: comparing the grayscale values of Western blot bands from drug-treated samples with those from blank DMSO-treated controls, and identifying the drug concentration range at which the grayscale value is half that of the DMSO-treated control bands.
(§6) DC50 values can be calculated using ImageJ software to measure grayscale values of Western blot bands from drug-treated samples. The concentration-response curve is fitted to estimate the drug concentration corresponding to half the grayscale value.
(§7) Target protein remaining (%) refers to the percentage of target protein remaining in cells after treatment with protein degrader compounds.
(§8) Calculation method for target protein remaining (%): Use ImageJ software to measure grayscale values of Western blot bands from drug (protein degrader)-treated samples. The grayscale value of drug-treated bands is divided by that of internal control protein bands, and the resulting quotient is normalized to obtain the relative percentage of remaining target protein after protein degrader treatment. Target protein degradation rate(%) = 1−target protein remaining(%). [formula]

[5] = target: T2, human Cereblon WT GST-tagged protein (Homo sapiens, UniProt Q96SW2); assay: CRBN-binding affinity, HTRF (CEREBLON BINDING kit); conditions: for inhibition at 0.5 µM: read-out: Inhibition Rate at 0.5 µM (%); for inhibition at 2 µM: read-out: Inhibition Rate at 2 µM (%)
T2 construct: purchased CISBIO 64BDCRBNPEH
Summary of the method: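 Compounds are serially diluted in diluent #9 (1X) and added at final 2 µM and 0.5 µM. GST-tagged wild-type Cereblon is added next, followed by premixed thalidomide-red reagent and anti-GST Eu antibody, and HTRF signal is measured.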

[6] = system: SW620; assay: Tumor cell proliferation inhibition (CellTiter-Meiluncell Luminescent Cell Viability Assay); type: cell-based; conditions: Homo sapiens, 96 hours, Table I-6, IRAK4 inhibitors
Summary of the method: as §1

[7] = target: T3, IRAK4 (Homo sapiens, UniProt Q9NWZ3); assay: Western blot, target protein degradation in hPBMC Cell; type: cell-based; conditions: substrate protein remaining %, treated at 50 nM and 500 nM, 24 hours
T3 construct: endogenous in cells; host or cells: hPBMC
Protocol: as §2, §3, §4, §5, §6, §7, §8

[8] = target: T4, BRM (Homo sapiens, UniProt P51531); assay: Western blot, target protein degradation in Molt-4 Cell; type: cell-based; conditions: substrate protein remaining %, treated at 500 nM and 50 nM, 24 hours
T4 construct: endogenous in cells; host or cells: Molt-4
Protocol: as §2, §3, §4, §5
(§9) DC50 values can be calculated using ImageJ software to measure grayscale values of Western blot bands from drug-treated samples. […]

[9] = target: T5, BRG1 (Homo sapiens, UniProt P51532); assay: as above; type: cell-based; conditions: substrate protein remaining %, treated at 500 nM and 50 nM, 24 hours
T5 construct: endogenous in cells; host or cells: Molt-4
Protocol: as §2, §3, §4, §5, §9

[10] = system: Jurkat; assay: Tumor cell proliferation inhibition (CellTiter-Meiluncell Luminescent Cell Viability Assay); conditions: Homo sapiens, 96 hours, Table I-5, designed based on the IRAK4 inhibitors, read-out: Inhibitory activity (IC50, nM) Jurkat
Protocol: The tumor cells used herein were cultured in a cell culture medium listed in table 3 at 37°C in an incubator with 5% CO2. Prior to experimentation, all cell lines used were correctly identified by STR profiling, and tested negative for mycoplasma contamination using a mycoplasma detection kit through routine screenings. Table 3. Tumor cells and cell culture medium used in the present disclosure
The IC50 values of the compounds of the present disclosure (including the compounds in Table 1, Table 2, and Examples) were determined using the CellTiter-Meiluncell Luminescent Cell Viability Assay Kit from Dalian Meilun Biotech Co., Ltd. The detailed procedure is as follows: Tumor cells were seeded in 96-well cell culture plates at the densities specified in Table 4. On the following day, the test compounds of the present disclosure were subjected to serial dilution. […] Subsequently, 0.5 µL of the test compound dilution was transferred into the 96-well plate containing the cells, with each well containing 100 µL of cell culture medium. […] Into the 96-well plate, the diluted test compounds and corresponding detection reagents were added, resulting in final test compound concentrations of 500 nM and 10 nM, respectively. The experimental procedure is described below using the diluted 2 µM test compound as an example.
0.5 µL of the aforementioned diluted compound of the present disclosure (including the compounds in Table 1, Table 2, and Examples) was added to the seeded cells in 100 µL of medium, yielding a final test compound concentration of 10 nM. After the cells were treated with the compounds of the present disclosure for a specified period, the cell viability assay reagent was added to the culture medium according to the kit's instructions to determine cell viability. […] All controls were treated using the same procedure as the compounds of the present disclosure. […] Seeding protocol and treatment time for tumor cells

[11] = Table I-8, SMARCA2/4 inhibitors

T2 sequence (Q96SW2 whole entry): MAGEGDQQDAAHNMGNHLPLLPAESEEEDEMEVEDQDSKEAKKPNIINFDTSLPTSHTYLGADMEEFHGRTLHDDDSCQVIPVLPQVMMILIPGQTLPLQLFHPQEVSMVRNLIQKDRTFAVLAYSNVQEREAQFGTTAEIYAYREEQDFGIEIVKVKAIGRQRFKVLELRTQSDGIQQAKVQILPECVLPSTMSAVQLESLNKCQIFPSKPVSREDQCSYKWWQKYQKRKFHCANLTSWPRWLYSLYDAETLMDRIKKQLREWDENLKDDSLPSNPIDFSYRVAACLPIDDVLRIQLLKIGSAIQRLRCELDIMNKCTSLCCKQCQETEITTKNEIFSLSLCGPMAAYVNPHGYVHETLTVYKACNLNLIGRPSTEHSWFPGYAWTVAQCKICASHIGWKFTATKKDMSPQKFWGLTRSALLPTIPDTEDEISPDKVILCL
T5 sequence (P51532 whole entry): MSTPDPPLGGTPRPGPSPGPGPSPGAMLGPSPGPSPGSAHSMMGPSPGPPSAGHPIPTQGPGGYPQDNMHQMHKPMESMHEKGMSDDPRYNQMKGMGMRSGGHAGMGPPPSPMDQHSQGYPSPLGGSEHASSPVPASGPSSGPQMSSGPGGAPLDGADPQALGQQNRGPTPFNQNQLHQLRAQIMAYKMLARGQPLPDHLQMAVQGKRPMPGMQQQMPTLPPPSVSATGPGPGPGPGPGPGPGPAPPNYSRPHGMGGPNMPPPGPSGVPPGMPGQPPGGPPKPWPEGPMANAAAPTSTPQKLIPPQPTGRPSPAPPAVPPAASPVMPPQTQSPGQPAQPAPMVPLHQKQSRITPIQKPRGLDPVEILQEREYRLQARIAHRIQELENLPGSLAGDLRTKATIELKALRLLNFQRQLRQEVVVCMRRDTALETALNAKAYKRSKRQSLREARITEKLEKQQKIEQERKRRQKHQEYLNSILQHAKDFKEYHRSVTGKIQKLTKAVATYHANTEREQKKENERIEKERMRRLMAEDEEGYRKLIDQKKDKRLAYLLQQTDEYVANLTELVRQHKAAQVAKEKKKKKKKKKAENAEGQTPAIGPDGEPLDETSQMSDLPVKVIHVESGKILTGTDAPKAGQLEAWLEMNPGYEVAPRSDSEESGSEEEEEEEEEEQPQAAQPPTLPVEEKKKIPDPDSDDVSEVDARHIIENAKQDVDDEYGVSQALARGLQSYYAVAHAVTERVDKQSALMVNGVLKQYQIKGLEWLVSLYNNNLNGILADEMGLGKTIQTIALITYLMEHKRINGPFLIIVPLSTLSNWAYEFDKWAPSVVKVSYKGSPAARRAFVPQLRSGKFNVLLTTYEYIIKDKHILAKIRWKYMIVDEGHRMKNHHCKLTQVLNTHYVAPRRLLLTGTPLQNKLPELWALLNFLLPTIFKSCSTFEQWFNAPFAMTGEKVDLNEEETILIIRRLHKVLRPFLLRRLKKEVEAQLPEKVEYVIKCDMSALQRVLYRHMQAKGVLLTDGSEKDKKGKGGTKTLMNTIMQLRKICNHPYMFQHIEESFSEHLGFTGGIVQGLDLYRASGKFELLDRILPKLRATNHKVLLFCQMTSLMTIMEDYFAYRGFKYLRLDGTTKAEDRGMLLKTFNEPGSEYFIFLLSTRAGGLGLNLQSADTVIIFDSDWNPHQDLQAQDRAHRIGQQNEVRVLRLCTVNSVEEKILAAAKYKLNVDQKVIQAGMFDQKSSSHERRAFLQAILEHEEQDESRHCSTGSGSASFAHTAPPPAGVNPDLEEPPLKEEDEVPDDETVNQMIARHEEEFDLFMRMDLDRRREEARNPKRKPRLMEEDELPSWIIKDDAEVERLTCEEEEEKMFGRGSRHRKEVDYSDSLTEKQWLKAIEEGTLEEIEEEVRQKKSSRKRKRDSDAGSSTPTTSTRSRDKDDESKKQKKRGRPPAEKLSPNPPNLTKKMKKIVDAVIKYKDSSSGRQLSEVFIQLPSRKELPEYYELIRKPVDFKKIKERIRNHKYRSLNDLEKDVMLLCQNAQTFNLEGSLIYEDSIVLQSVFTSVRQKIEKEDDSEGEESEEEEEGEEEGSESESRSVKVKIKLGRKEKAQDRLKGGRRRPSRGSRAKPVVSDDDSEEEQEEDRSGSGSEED
T4 sequence (P51531 whole entry): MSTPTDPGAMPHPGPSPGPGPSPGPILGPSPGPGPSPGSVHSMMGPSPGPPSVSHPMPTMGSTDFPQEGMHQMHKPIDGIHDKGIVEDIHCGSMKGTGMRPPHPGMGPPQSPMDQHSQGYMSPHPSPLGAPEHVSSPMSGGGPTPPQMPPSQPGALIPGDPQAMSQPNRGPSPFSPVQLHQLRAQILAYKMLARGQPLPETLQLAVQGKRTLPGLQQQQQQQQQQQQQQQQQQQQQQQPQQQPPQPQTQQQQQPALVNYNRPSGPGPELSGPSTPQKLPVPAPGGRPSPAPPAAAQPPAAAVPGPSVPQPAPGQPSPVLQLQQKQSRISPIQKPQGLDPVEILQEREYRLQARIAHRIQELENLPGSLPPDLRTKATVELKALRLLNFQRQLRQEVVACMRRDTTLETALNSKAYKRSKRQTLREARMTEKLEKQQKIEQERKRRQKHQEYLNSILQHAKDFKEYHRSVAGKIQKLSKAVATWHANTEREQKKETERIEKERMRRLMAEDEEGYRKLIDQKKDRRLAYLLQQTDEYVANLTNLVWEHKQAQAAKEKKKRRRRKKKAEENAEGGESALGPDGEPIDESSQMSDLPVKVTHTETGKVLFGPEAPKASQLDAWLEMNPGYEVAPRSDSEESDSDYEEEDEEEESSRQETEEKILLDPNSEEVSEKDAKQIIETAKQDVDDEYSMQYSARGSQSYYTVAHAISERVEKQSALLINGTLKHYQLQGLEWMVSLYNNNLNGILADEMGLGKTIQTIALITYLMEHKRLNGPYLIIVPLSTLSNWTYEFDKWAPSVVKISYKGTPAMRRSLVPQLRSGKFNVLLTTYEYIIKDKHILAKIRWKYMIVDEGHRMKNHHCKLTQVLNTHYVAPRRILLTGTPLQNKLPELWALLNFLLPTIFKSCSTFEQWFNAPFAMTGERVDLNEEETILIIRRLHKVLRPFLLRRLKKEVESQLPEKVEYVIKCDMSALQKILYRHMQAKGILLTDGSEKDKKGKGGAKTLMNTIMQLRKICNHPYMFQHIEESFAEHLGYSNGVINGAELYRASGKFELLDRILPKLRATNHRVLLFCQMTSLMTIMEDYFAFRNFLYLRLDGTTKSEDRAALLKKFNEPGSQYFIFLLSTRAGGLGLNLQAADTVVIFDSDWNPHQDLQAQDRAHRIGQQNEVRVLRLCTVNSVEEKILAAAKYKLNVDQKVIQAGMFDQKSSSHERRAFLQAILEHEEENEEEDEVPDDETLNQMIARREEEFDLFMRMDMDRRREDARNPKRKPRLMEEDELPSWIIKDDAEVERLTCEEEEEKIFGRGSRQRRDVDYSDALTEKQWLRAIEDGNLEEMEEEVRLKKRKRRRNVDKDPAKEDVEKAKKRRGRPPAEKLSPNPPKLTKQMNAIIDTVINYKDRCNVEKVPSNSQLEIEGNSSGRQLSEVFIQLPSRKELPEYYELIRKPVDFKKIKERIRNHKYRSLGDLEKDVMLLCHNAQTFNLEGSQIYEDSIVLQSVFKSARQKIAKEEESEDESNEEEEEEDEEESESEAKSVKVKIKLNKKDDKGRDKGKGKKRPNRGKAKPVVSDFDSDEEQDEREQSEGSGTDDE
T3 sequence (Q9NWZ3 whole entry): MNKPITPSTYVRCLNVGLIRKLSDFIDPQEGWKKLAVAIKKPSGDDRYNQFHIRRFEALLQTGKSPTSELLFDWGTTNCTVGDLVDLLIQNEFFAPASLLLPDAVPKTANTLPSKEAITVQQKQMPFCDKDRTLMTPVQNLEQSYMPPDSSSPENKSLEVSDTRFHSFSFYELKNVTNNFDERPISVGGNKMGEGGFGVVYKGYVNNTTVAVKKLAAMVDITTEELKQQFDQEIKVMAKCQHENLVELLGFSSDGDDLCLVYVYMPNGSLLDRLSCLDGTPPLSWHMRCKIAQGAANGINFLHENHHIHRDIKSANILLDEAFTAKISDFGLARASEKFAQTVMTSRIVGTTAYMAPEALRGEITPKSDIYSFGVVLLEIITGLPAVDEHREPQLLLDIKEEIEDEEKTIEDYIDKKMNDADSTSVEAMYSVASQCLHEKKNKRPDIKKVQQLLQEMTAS

Row | SMILES | Degradation of substrate protein CDK2 [4] | inhibition at 0.5 µM [5] [%] | inhibition at 2 µM [5] [%] | inhibition at 0.01 µM ([2]; Table I-13, CDK2 inhibitors) [%] | inhibition at 0.5 µM ([2]; Table I-13, CDK2 inhibitors) [%] | inhibition at 0.01 µM ([3]; Table I-13, CDK2 inhibitors) [%] | inhibition at 0.5 µM ([3]; Table I-13, CDK2 inhibitors) [%] | further results
1 | O=C1CCC(N2Cc3cc(CN4CCC(n5cc(NC(=O)c6coc(-c7ccnc(NCC(F)(F)F)c7)n6)c(C(F)F)n5)CC4)ccc3C2=S)C(=O)N1 (stereo not shown) [GT-05292, N-(3-(difluoromethyl)-1-(1-((2-(2,6-dioxopiperidin-3-yl)-1-thioxoisoindolin-5-yl)methyl)piperidin-4-yl)-1H-pyrazol-4-yl)-2-(2-((2,2,2-trifluoroethyl)amino)pyridin-4-yl)oxazole-4-carboxamide] |  | 20 to 30 | 60 to 80 |  |  |  |  | inhibition at 0.01 µM ([1]; Table I-6, IRAK4 inhibitors): 30 to 40%; inhibition at 0.5 µM ([1]; Table I-6, IRAK4 inhibitors): 80 to 100%; inhibition at 0.01 µM ([2]; Table I-6, IRAK4 inhibitors): 50 to 60%; inhibition at 0.5 µM ([2]; Table I-6, IRAK4 inhibitors): 80 to 100%; inhibition at 0.01 µM ([6]; SW-620, 10 nM, read-out: Inhibition Rate at 10 nM (%)): 70 to 80%; inhibition at 0.5 µM ([6]; SW-620, 500 nM, read-out: Inhibition Rate at 500 nM (%)): 80 to 100%; inhibition at 0.01 µM ([3]; Table I-6, IRAK4 inhibitors): 80 to 100%; inhibition at 0.5 µM ([3]; Table I-6, IRAK4 inhibitors): 80 to 100%; Degradation of substrate protein IRAK4 [7]: A (0% ≤ substrate protein remaining % ≤ 80%)
2 | Nc1nnc(-c2ccccc2O)cc1N1CCN(Cc2ccc3c(c2)C(=S)N(C2CCC(=O)NC2=O)C3)CC1 (stereo not shown) [GT-08787, 3-(6-((4-(3-amino-6-(2-hydroxyphenyl)pyridazin-4-yl)piperazin-1-yl)methyl)-1-thioxoisoindolin-2-yl)piperidine-2,6-dione] |  | 60 to 80 | 80 to 100 |  |  |  |  | inhibition at 0.01 µM [2, 11]: 30 to 40%; inhibition at 0.5 µM [2, 11]: 40 to 50%; Degradation of substrate protein BRM [8]: A (0% ≤ substrate protein remaining % ≤ 80%); Degradation of substrate protein BRG1 [9]: A (0% ≤ substrate protein remaining % ≤ 80%)
3 | COc1cc2nn(C3CCN(Cc4cccc5c4CN(C4CCC(=O)NC4=O)C5=S)CC3)cc2cc1NC(=O)c1cccc(C(F)(F)F)n1 (stereo not shown) [GT-04950, N-(2-(1-((2-(2,6-dioxopiperidin-3-yl)-1-thioxoisoindolin-4-yl)methyl)piperidin-4-yl)-6-methoxy-2H-indazol-5-yl)-6-(trifluoromethyl)picolinamide] |  | 40 to 53 | 60 to 80 |  |  |  |  | IC50 ([2]; Table I-5, designed based on the IRAK4 inhibitors, read-out: Inhibitory activity (IC50, nM) MM.1S): 100 to 500 nM; IC50 [10]: 500 to 1000 nM

Further lines, with some results ahead:

Row | Degradation of substrate protein CDK2 [4] | inhibition at 0.5 µM [5] [%] | inhibition at 2 µM [5] [%] | SMILES | inhibition at 0.01 µM ([2]; Table I-13, CDK2 inhibitors) [%] | inhibition at 0.5 µM ([2]; Table I-13, CDK2 inhibitors) [%] | inhibition at 0.01 µM ([3]; Table I-13, CDK2 inhibitors) [%] | inhibition at 0.5 µM ([3]; Table I-13, CDK2 inhibitors) [%] | further results
4 | Yes | 53 to 60 | 60 to 80 | Cc1ccsc1C(=O)n1nc(Nc2ccc(S(=O)(=O)N3CCN(Cc4ccc5c(c4)C(=S)N(C4CCC(=O)NC4=O)C5)CC3)cc2)nc1N (stereo not shown) [GT-08798, 3-(6-((4-((4-((5-amino-1-(3-methylthiophene-2-carbonyl)-1H-1,2,4-triazol-3-yl)amino)phenyl)sulfony 1)piperazin-1-yl)methyl)-1-thioxoisoindolin-2-yl)piperidine-2,6-dione] | 10 to 20 | 50 to 60 | 20 to 30 | 60 to 70 | inhibition at 0.01 µM ([1]; Table I-13, CDK2 inhibitors): 10 to 20%; inhibition at 0.5 µM ([1]; Table I-13, CDK2 inhibitors): 60 to 70%
5 | Yes | 60 to 80 | 60 to 80 | Cc1ccsc1C(=O)n1nc(Nc2ccc(S(=O)(=O)N3CCN(Cc4ccc5c(c4)CN(C4CCC(=O)NC4=O)C5=S)CC3)cc2)nc1N (stereo not shown) [GT-08792, 3-(5-((4-((4-((5-amino-1-(3-methylthiophene-2-carbonyl)-1H-1,2,4-triazol-3-yl)amino)phenyl)sulfony 1)piperazin-1-yl)methyl)-1-thioxoisoindolin-2-yl)piperidine-2,6-dione] | 10 to 20 | 60 to 70 | 0 to 5 | 50 to 60 | 
